In patent publication US20260069584A1, “METHODS OF TREATING CHRONIC MYELOID LEUKEMIA USING THE TYROSINE KINASE INHIBITOR VODOBATINIB” (Sun Pharma Advanced Research Company Ltd., priority 2022, published 2026):

Experiment: Part B: safety, treatment-emergent adverse events, DLT and MTD
Format: in vivo
Text: For the purpose of the present invention, the adverse events were graded as per the National Cancer Institute's, Common Terminology Criteria for Adverse Events (NCI-CTCAE) Version 4.03 and Version 5.0 (https://evs.nci.nih.gov/ftp1/CTCAE/About.html). It is a descriptive terminology which can be utilized for Adverse Event (AE) reporting.
AEs were graded as per NCI-CTCAE Version 5.0. In the present study, along with others most common AEs for which patients were monitored were thrombocytopenia, neutropenia and anemia, any AE reported by the patient after the completion of AE collection period and considered related to the study drug was reported.
Dose Limiting Toxicity (DLT) is defined as the occurrence of any of the following unless clearly and incontrovertibly related to the underlying disease. The hematological DLTs were defined as per the Phase of CML: • a) Grade 3 or higher, or other non-hematological toxicity, including nausea, vomiting and diarrhea, and refractory to standard antiemetic therapy except alopecia and nail disorders; • b) Missed ≥25% of doses over 28 days due to toxicity in Cycle 1; and • c) Any grade of toxicity requiring dose reduction or discontinuation of IMP within the 28-days DLT assessment period (Cycle 1).
Safety Parameters: Parts B and C: Descriptive summaries were provided for the safety variables collected. Continuous variables were summarized using mean, standard deviation, minimum, median, and maximum. Categorical variables were summarized using frequency counts and percentages. For time-to-event variables, other percentiles were presented. In addition, summaries of AEs by intensity, seriousness, frequency, and relationship to IMP are presented. Adverse events (AE) s were coded using the Medical Dictionary for Regulatory Activities (MedDRA) and summarized by System Organ Class (SOC) and Preferred Term (PT).
In this study, the dose-escalation cohort started with an accelerated titration study design (ATD) and shifted to a 3±3 design when subjects in the preceding ATD cohort experienced either grade 2 or higher adverse events (AEs) or dose-limiting toxicity (DLT) during Cycle 1 that was not clearly and incontrovertibly related to the underlying disease or concomitant medications. The DLT period consisted of 28 days (Cycle 1). Subjects experiencing DLTs were managed with dose delays and/or discontinuation and continued in the study until disease progression. Decisions to advance to a succeeding dose level occurred after the evaluation of safety and tolerability data for a given dose level.
For the cohorts, where the 3±3 design applies, 3 subjects were enrolled initially. If 2 of these subjects experienced a Grade 2 or more toxicity (that was not clearly and incontrovertibly related to the underlying disease or concomitant medications), subsequent cohorts were escalated according to smaller increments. Further, if there were no DLTs in the first 3 subjects, dose escalation to the next higher dose level was allowed to proceed. If 1 of the 3 subjects experienced a DLT, that dose level was expanded to 6 subjects (3 additional subjects were enrolled). If 2 subjects at a given dose level experienced a DLT, the MTD was considered to have been exceeded. The next lower dose level was expanded to 6 subjects, or if 6 subjects had already been enrolled and no more than 1 of the 6 subjects experienced a DLT, then this lower dose level was considered the MTD. Additional subjects were enrolled in dose escalation cohorts for further assessment of safety and efficacy of the compound of Formula 1 at doses that were tolerated (i.e., doses that have <2 DLTs in 6 enrolled subjects or <1 DLT in 3 enrolled subjects). Thus 204 mg was arrived at as MTD. A subject experiencing a DLT was allowed to continue therapy with a reduced dose. Subjects who experienced a DLT and recovered were treated at the next lower dose level until disease progression or other events requiring further dose reduction existed. […]

## Cc1ccc(C(=O)NNC(=O)c2c(C)cccc2Cl)cc1C#Cc1cnc2ccccc2c1 [compound of Formula I, N′-(2-chloro-6-methylbenzoyl)-4-methyl-3-[2-(3-quinolyl)ethynyl]-benzohydrazide]
6 patients, prior 2 TKI treatments
  grade 3 or 4 AEs: 33.4%
6 pts
  AEs leading to permanent discontinuation: 11.3%
10 subjects, dose expansion at 174 mg
  discontinued from the study due to AE: 1 subject
19 patients treated with ponatinib
  grade 3 or 4 AEs: 86.3%
28 patients, 3 or more TKI treatments
  grade 3 or 4 AEs: 80%
41 subjects, dose escalation
  discontinued due to disease progression: 4 subjects
41 subjects, dose escalation (1 each at 48, 126, 174 and 204 mg)
  discontinued due to AEs: 4 subjects
41 subjects, dose escalation cohorts
  discontinued from the study: 11 subjects
Overall (N = 53)
  All TEAEs, Any grade: 51 No of pts
  All TEAEs, Grade 3/4: 34 No of pts
  Amylase increased, Any grade: 5 No of pts
  Amylase increased, Grade 3/4: 4 No of pts
  Anemia, Any grade: 11 No of pts
  Anemia, Grade 3/4: 7 No of pts
  Back pain, Any grade: 7 No of pts
  Back pain, Grade 3/4: 0 No of pts
  Constipation, Any grade: 8 No of pts
  Constipation, Grade 3/4: 0 No of pts
  Cough, Any grade: 11 No of pts
  Cough, Grade 3/4: 0 No of pts
  Death, Grade 3/4: 0 No of pts
  Decreased appetite, Any grade: 6 No of pts
  Decreased appetite, Grade 3/4: 0 No of pts
  Diarrhoea, Any grade: 12 No of pts
  Diarrhoea, Grade 3/4: 1 No of pts
  Fatigue, Any grade: 7 No of pts
  Fatigue, Grade 3/4: 0 No of pts
  Headache, Any grade: 8 No of pts
  Headache, Grade 3/4: 0 No of pts
  Lipase increased, Any grade: 5 No of pts
  Lipase increased, Grade 3/4: 4 No of pts
  Myalgia, Any grade: 7 No of pts
  Myalgia, Grade 3/4: 0 No of pts
  Nasopharyngitis, Any grade: 6 No of pts
  Nasopharyngitis, Grade 3/4: 0 No of pts
  Nausea, Any grade: 8 No of pts
  Nausea, Grade 3/4: 0 No of pts
  Neutropenia, Any grade: 8 No of pts
  Neutropenia, Grade 3/4: 7 No of pts
  Pruritis, Any grade: 6 No of pts
  Pruritis, Grade 3/4: 0 No of pts
  Pyrexia, Any grade: 8 No of pts
  Pyrexia, Grade 3/4: 1 No of pts
  Rhinitis, Any grade: 6 No of pts
  Rhinitis, Grade 3/4: 0 No of pts
  SAEs, Any grade: 20 No of pts
  SAEs, Grade 3/4: 12 No of pts
  TEAEs Leading to drug withdrawal, Any grade: 6 No of pts
  TEAEs Leading to drug withdrawal, Grade 3/4: 2 No of pts
  TEAEs Related to comp of Formula I, Any grade: 35 No of pts
  TEAEs Related to comp of Formula I, Grade 3/4: 14 No of pts
  TEAEs: Dose discontinued and restarted, Any grade: 20 No of pts
  TEAEs: Dose discontinued and restarted, Grade 3/4: 12 No of pts
  TEAEs: Dose modifications, Any grade: 11 No of pts
  TEAEs: Dose modifications, Grade 3/4: 6 No of pts
  Thrombocytopenia, Any grade: 22 No of pts
  Thrombocytopenia, Grade 3/4: 10 No of pts
  Vomiting, Any grade: 7 No of pts
  Vomiting, Grade 3/4: 0 No of pts
Prior Ponatinib (N = 22)
  All TEAEs, Any grade: 22 No of pts
  All TEAEs, Grade 3/4: 19 No of pts
  Amylase increased, Any grade: 3 No of pts
  Amylase increased, Grade 3/4: 2 No of pts
  Anemia, Any grade: 6 No of pts
  Anemia, Grade 3/4: 4 No of pts
  Back pain, Any grade: 3 No of pts
  Back pain, Grade 3/4: 0 No of pts
  Constipation, Any grade: 3 No of pts
  Constipation, Grade 3/4: 0 No of pts
  Cough, Any grade: 5 No of pts
  Cough, Grade 3/4: 0 No of pts
  Death, Any grade: 2 No of pts
  Death, Grade 3/4: 0 No of pts
  Decreased appetite, Any grade: 3 No of pts
  Decreased appetite, Grade 3/4: 0 No of pts
  Diarrhoea, Any grade: 7 No of pts
  Diarrhoea, Grade 3/4: 1 No of pts
  Fatigue, Any grade: 4 No of pts
  Fatigue, Grade 3/4: 0 No of pts
  Headache, Any grade: 4 No of pts
  Headache, Grade 3/4: 0 No of pts
  Lipase increased, Any grade: 2 No of pts
  Lipase increased, Grade 3/4: 2 No of pts
  Myalgia, Any grade: 2 No of pts
  Myalgia, Grade 3/4: 0 No of pts
  Nasopharyngitis, Any grade: 2 No of pts
  Nasopharyngitis, Grade 3/4: 0 No of pts
  Nausea, Any grade: 7 No of pts
  Nausea, Grade 3/4: 0 No of pts
  Neutropenia, Any grade: 3 No of pts
  Neutropenia, Grade 3/4: 2 No of pts
  Pruritis, Any grade: 4 No of pts
  Pruritis, Grade 3/4: 0 No of pts
  Pyrexia, Any grade: 4 No of pts
  Pyrexia, Grade 3/4: 1 No of pts
  Rhinitis, Any grade: 4 No of pts
  Rhinitis, Grade 3/4: 0 No of pts
  SAEs, Any grade: 10 No of pts
  SAEs, Grade 3/4: 7 No of pts
  TEAEs Leading to drug withdrawal, Any grade: 2 No of pts
  TEAEs Leading to drug withdrawal, Grade 3/4: 2 No of pts
  TEAEs Related to comp of Formula I, Any grade: 15 No of pts
  TEAEs Related to comp of Formula I, Grade 3/4: 7 No of pts
  TEAEs: Dose discontinued and restarted, Any grade: 12 No of pts
  TEAEs: Dose discontinued and restarted, Grade 3/4: 7 No of pts
  TEAEs: Dose modifications, Any grade: 8 No of pts
  TEAEs: Dose modifications, Grade 3/4: 4 No of pts
  Thrombocytopenia, Any grade: 7 No of pts
  Thrombocytopenia, Grade 3/4: 3 No of pts
  Vomiting, Any grade: 4 No of pts
  Vomiting, Grade 3/4: 0 No of pts
Any grade
  Cough: 20.8%
  anemia: 20.8%
  diarrhea: 22%
  thrombocytopenia: 41.5%
